{"source": "patent US20110014296A1", "about": "“Drug Delivery Nanodevice, its Preparation Method and Uses Thereof” (NATIONAL CHIAO TUNG UNIVERSITY, priority 2009, published 2011)", "tested_on": "spontaneous SWDs of Long-Evans rats", "assay": "In vivo anti-epileptic therapy, spontaneous spike-wave discharges (SWDs)", "set-up": "species or system rat", "conditions": "before and after application, ESM 28 mg/Kg i.p., ESM-SAIO and ESM-device 40 mg/Kg (FIG. 12)", "protocol": "Adult male Long-Evans and Wistar rats were used in this study. All rats were kept in a sound-attenuated room under a 12:12 hr light-dark cycle (07:00-19:00 lights on) with food and water provided ad libitum. The experimental procedures were reviewed and approved by the Institutional Animal Care and Use Committee. Briefly, the recording electrodes were implanted under pentobarbital anesthesia (60 mg/kg, i.p.). Subsequently, the rat was placed in a standard stereotaxic apparatus. In total, six stainless steel screws were driven bilaterally into the skull overlying the frontal (A +2.0, L 2.0 with reference to the bregma) and occipital (A −6.0, L 2.0) regions of the cortex to record cortical field potentials. A ground electrode was implanted 2 mm caudal to lambda. Dental cement was applied to fasten the connection socket to the surface of the skull. Following suturing to complete the surgery, animals were given an antibiotic (chlortetracycline) and housed individually in cages for recovery. […] To confirm the cortical focus theory of SWDs, a pharmacological epileptic rat model, low-dose pentylenetetrazol (PTZ) (20 mg/kg, i.p.) in Wistar rats, was also used. […] In this experiment, 1-hour spontaneous brain activity before the treatment (baseline) and another 1-hour spontaneous brain activity 30 minutes after the treatment were recorded, respectively. […]"}
{"smiles": "CCC1(C)CC(=O)NC1=O", "note": "(centres unmarked) [ESM, ethosuximide]", "values": [{"measurement": "SWD number", "value": "significantly reduced"}, {"measurement": "total SWD duration", "value": "significantly reduced"}]}
